System: influenza virus A/Puerto Rico/8/34 (H1N1)
Parameters: species or system BALB/cA Jcl [SPF] mice
Conditions: mouse, in vivo, iv

**Q.** For `CCC(CC)[C@H](NC(C)=O)[C@@H]1[C@H](O)[C@@H](C(=O)O)C[C@H]1N=C(N)N` [peramivir, reference compound], which survival rate is on record?
**A.** 20%

— patent US12351652B2, “Hemagglutinin-binding peptide” (priority 2019, dated 2025)
